Laboratory results reported in patent US20190330224A1, “ACC INHIBITORS AND USES THEREOF” (Gilead Apollo, LLC, priority 2015, published 2019).
pIC50: −log10 of the molar value. ≈ marks a conversion by molar mass, not a printed value.

Experiments:
[1] = molecular target: Human ACC2 (Homo sapiens, UniProt O00763); test: In vitro ACC2 inhibition assay (ADP-Glo), human ACC2; type: biochemical; conditions: 5 nM ACC2, 20 μM ATP, 20 μM acetyl-CoA
[2] = system: C. albicans ATCC 90028; test: Anti-Fungal Activity Assay (broth microtiter MIC), C. albicans; type: cell-based, Candida albicans; conditions: Candida albicans, ATCC90028, 48 h, 3 replicates; MIC recorded at 48 h; read-out: MIC C. albicans ATCC 90028
Outline: (§1)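 MIC taken as visual growth inhibition versus the growth control, mostly at 48 h (soraphen also at 24 h). Following CLSI M27-A3, colonies grown overnight at 35° C on Sabouraud dextrose agar were suspended in RPMI 1640+MOPS; test agents came from 1 mg/mL DMSO stocks.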

[3] = system: C. krusei ATCC 6258; test: Anti-Fungal Activity Assay (broth microtiter MIC), C. krusei; type: cell-based, Candida krusei; conditions: Pichia kudriavzevii, ATCC6258, 48 h, 3 replicates; MIC recorded at 48 h; read-out: MIC C. krusei ATCC 6258
Outline: as §1

[4] = system: C. parapsilosis ATCC 22019; test: Anti-Fungal Activity Assay (broth microtiter MIC), C. parapsilosis; type: cell-based, Candida parapsilosis; conditions: Lodderomyces parapsilosis, ATCC22019, 48 h, 3 replicates; MIC recorded at 48 h; read-out: MIC C. parapsilosis ATCC 22019
Outline: as §1

[5] = molecular target: Fungal ACC2 (UniProt Q00955); conditions: read-out: Fungal ACC2 (IC50, in vitro ACC2 inhibition)
Chain of Fungal ACC2 (Q00955 whole entry): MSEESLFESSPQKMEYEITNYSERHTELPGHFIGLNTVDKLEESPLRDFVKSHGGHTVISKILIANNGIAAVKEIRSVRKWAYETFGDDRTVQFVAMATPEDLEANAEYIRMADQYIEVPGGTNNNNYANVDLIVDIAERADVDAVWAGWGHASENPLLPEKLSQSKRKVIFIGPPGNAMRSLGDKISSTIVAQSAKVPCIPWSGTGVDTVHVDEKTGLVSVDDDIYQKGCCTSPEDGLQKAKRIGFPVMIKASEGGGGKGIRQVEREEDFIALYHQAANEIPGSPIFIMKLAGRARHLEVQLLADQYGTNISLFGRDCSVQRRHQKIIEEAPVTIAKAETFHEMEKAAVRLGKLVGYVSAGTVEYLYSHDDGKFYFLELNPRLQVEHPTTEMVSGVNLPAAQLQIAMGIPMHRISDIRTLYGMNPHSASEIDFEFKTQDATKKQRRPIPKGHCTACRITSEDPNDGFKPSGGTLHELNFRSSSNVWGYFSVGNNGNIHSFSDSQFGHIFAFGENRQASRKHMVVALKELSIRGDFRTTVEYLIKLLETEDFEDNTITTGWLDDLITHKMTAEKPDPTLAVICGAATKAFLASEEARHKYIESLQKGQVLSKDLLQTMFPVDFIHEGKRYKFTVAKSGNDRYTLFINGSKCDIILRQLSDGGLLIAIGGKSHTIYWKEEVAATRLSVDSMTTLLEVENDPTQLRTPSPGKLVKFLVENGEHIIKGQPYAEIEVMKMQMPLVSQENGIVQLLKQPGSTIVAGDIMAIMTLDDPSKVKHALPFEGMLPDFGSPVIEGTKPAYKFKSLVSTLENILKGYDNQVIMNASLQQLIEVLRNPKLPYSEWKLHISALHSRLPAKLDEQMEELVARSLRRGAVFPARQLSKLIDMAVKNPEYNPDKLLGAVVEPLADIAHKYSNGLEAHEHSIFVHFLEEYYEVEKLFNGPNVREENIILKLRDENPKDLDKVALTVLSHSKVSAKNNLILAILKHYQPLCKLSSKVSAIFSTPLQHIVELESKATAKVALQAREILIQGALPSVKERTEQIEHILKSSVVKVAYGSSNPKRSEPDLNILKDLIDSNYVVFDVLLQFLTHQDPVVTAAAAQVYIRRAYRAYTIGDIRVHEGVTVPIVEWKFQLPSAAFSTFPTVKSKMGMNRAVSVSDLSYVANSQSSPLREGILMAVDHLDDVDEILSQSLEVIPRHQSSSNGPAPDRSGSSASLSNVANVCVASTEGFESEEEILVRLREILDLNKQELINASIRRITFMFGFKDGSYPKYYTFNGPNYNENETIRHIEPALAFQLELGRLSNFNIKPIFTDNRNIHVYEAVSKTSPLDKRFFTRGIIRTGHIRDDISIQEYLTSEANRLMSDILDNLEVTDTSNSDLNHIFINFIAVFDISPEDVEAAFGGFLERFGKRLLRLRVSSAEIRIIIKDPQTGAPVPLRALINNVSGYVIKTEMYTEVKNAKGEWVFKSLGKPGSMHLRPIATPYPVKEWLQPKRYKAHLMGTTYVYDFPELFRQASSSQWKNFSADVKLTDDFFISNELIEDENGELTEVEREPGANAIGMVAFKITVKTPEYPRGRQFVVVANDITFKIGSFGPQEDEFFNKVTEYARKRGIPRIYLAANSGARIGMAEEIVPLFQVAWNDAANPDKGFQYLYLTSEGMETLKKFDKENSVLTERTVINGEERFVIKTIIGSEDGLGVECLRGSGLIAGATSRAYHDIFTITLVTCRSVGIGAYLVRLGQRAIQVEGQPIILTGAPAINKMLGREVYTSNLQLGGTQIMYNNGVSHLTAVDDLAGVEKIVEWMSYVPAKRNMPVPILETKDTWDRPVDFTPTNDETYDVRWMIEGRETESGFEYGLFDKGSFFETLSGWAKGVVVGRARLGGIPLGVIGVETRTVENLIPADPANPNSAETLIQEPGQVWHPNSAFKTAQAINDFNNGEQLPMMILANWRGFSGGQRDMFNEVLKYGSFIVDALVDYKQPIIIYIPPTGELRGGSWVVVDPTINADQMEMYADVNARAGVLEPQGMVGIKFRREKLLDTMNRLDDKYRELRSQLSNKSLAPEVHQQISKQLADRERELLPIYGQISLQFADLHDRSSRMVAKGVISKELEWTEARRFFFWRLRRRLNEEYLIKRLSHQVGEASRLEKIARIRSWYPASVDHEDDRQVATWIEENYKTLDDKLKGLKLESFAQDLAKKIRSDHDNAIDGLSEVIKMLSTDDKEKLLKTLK

Chain of Human ACC2 (O00763 whole entry): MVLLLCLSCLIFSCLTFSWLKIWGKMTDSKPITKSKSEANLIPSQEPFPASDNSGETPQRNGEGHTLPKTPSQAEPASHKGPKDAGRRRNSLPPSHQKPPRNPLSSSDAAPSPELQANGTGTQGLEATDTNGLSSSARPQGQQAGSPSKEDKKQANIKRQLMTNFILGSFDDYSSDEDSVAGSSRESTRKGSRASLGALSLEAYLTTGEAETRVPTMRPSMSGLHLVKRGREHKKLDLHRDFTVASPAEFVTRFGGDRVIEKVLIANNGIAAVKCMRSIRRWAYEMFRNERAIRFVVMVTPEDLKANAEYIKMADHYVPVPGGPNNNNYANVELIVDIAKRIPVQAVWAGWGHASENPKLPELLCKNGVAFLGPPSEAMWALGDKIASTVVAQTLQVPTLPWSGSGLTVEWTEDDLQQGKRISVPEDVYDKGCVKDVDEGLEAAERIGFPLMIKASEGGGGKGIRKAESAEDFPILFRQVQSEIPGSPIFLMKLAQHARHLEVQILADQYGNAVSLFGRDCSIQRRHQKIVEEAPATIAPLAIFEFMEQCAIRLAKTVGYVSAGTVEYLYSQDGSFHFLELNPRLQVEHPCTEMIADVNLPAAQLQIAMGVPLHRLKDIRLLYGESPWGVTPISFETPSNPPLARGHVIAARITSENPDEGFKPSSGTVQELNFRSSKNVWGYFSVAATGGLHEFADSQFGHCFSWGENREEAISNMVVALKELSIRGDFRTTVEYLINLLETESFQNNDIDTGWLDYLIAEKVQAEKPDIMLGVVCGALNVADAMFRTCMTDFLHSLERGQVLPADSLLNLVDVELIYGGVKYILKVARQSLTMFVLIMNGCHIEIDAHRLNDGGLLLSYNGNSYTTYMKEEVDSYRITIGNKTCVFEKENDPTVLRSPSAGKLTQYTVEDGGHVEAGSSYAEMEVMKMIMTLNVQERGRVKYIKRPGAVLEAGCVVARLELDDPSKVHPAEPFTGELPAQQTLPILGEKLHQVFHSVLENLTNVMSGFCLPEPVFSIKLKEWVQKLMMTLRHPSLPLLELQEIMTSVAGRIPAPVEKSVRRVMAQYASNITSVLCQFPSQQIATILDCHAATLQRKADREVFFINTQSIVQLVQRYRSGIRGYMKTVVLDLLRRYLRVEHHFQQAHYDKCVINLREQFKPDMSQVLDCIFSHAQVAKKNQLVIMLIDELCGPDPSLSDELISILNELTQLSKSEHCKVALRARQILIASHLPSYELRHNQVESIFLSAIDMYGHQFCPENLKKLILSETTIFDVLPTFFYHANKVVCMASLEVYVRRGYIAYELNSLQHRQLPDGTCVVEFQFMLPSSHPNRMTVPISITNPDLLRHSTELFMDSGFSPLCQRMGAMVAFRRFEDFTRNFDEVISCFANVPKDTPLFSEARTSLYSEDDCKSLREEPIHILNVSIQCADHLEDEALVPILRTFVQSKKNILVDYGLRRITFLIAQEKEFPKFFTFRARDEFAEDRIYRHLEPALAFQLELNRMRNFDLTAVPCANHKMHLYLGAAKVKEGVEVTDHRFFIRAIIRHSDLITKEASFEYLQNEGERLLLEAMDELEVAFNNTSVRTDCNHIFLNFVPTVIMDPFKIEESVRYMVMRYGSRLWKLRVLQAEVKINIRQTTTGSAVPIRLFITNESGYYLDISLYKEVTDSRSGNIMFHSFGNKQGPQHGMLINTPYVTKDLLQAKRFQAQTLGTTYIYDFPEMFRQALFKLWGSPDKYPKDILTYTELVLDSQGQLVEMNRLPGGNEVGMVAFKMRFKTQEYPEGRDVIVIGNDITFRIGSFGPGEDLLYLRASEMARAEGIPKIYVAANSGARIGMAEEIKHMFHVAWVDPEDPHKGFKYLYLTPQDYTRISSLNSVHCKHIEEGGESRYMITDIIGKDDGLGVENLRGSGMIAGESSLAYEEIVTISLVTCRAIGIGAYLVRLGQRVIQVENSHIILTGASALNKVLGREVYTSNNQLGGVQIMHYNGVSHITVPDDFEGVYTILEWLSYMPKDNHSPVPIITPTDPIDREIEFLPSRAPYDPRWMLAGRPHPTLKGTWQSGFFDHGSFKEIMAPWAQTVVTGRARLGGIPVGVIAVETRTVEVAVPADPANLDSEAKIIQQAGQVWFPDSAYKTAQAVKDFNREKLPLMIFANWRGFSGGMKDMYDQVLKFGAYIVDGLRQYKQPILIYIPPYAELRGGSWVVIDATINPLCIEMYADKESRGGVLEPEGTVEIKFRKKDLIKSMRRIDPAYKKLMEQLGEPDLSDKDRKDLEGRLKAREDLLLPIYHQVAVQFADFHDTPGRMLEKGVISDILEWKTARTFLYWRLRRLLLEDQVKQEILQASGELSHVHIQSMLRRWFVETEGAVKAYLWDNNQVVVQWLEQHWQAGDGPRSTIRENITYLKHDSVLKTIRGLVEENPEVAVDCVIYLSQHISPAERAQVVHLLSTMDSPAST

`COc1ccc(F)cc1[C@H](Cn1c(=O)n([C@@H]2CCCNC2=O)c(=O)c2c(C)c(-n3nccn3)sc21)O[C@H]1CC[C@@H](O)CC1` [Compound I-174, 1-((R)-2-(5-fluoro-2-methoxyphenyl)-2-(((1 s, 4S)-4-hydroxycyclohexyl)oxy)ethyl)-5-methyl-3-((R)-2-oxopiperidin-3-yl)-6-(2H-1,2,3-triazol-2-yl)thieno[2,3-d]pyrimidine-2,4(1H,3H)-dione] was tested, and the pIC50 [1] was 8.00 to 8.70, the MIC [2] was 0.25 to 1 µg/mL (≈ 0.408 to 1.63 µM) and the MIC [3] was 0.25 to 1 µg/mL (≈ 0.408 to 1.63 µM). For the same compound, the MIC [4] was 1.1 to 2 µg/mL (≈ 1.8 to 3.26 µM) and the pIC50 [5] was 8.70 to 9.15.
Work on `COc1ccc(F)cc1[C@H](Cn1c(=O)n([C@@H]2CCN(C)C2=O)c(=O)c2c(C)c(-n3nccn3)sc21)OCCC(=O)O` [Compound I-175, 3-((R)-1-(5-fluoro-2-methoxyphenyl)-2-(5-methyl-3-((R)-1-methyl-2-oxopyrrolidin-3-yl)-2,4-dioxo-6-(2H-1,2,3-triazol-2-yl)-3,4-dihydro-thieno[2,3-d]pyrimidin-1(2H)-yl)ethoxy)propanoic acid] yielded a pIC50 [1] of 7.00 to 8.00, an MIC [2] of 2.1 to 4 µg/mL (≈ 3.58 to 6.82 µM) and an MIC [3] of 2.1 to 4 µg/mL (≈ 3.58 to 6.82 µM). The MIC [4] was 2.1 to 4 µg/mL (≈ 3.58 to 6.82 µM) and the pIC50 [5] was 8.70 to 9.15.
`COc1ccc(F)cc1[C@H](Cn1c(=O)n([C@H]2CCN(C)C2=O)c(=O)c2c(C)c(-n3nccn3)sc21)OCCC(=O)O` [Compound I-176, 3-((R)-1-(5-fluoro-2-methoxyphenyl)-2-(5-methyl-3-((S)-1-methyl-2-oxopyrrolidin-3-yl)-2,4-dioxo-6-(2H-1,2,3-triazol-2-yl)-3,4-dihydrothieno[2,3-d]pyrimidin-1 (2H)-yl)ethoxy)propanoic acid] showed a pIC50 [1] of 7.00 to 8.00, an MIC [2] of 2.1 to 4 µg/mL (≈ 3.58 to 6.82 µM) and an MIC [3] of 2.1 to 4 µg/mL (≈ 3.58 to 6.82 µM). The MIC [4] was 2.1 to 4 µg/mL (≈ 3.58 to 6.82 µM) and the pIC50 [5] was 8.00 to 8.70.
Compound `COc1ccc(F)cc1[C@H](Cn1c(=O)n([C@H]2CCCNC2=O)c(=O)c2c(C)c(-n3nccn3)sc21)OCCC(=O)O` [Compound I-177, 3-((R)-1-(5-fluoro-2-methoxyphenyl)-2-(5-methyl-2,4-dioxo-3-((S)-2-oxopiperidin-3-yl)-6-(2H-1,2,3-triazol-2-yl)-3,4-dihydrothieno[2,3-d]pyrimidin-1 (2H)-yl)ethoxy)propanoic acid] has a pIC50 [1] of 7.00 to 8.00, an MIC [2] of 2.1 to 4 µg/mL (≈ 3.58 to 6.82 µM) and an MIC [3] of 2.1 to 4 µg/mL (≈ 3.58 to 6.82 µM). It also gave an MIC [4] of 2.1 to 4 µg/mL (≈ 3.58 to 6.82 µM) and a pIC50 [5] of 8.00 to 8.70.
`COc1ccc(F)cc1[C@H](Cn1c(=O)n([C@@H]2CCN(C)C2=O)c(=O)c2c(C)c(-n3cccn3)sc21)OCCC(=O)O` [Compound I-179, 3-((R)-1-(5-fluoro-2-methoxyphenyl)-2-(5-methyl-3-((R)-1-methyl-2-oxopyrrolidin-3-yl)-2,4-dioxo-6-(H-pyrazol-1-yl)-3,4-dihydrothieno[2,3-d]pyrimidin-1 (2H)-yl)ethoxy)propanoic acid] gave a pIC50 [1] of 7.00 to 8.00, an MIC [2] of 2.1 to 4 µg/mL (≈ 3.59 to 6.83 µM) and an MIC [3] of 2.1 to 4 µg/mL (≈ 3.59 to 6.83 µM). The MIC [4] was 2.1 to 4 µg/mL (≈ 3.59 to 6.83 µM) and the pIC50 [5] was 8.00 to 8.70.
Work on `COc1ccc(F)cc1[C@H](Cn1c(=O)n([C@H]2CCN(C)C2=O)c(=O)c2c(C)c(-n3cccn3)sc21)OCCC(=O)O` [Compound I-180, 3-((R)-1-(5-fluoro-2-methoxyphenyl)-2-(5-methyl-3-((S)-1-methyl-2-oxopyrrolidin-3-yl)-2,4-dioxo-6-(1H-pyrazol-1-yl)-3,4-dihydrothieno[2,3-d]pyrimidin-1(2H)-yl)ethoxy)propanoic acid] yielded a pIC50 [1] of 6.00 to 7.00, an MIC [2] of 2.1 to 4 µg/mL (≈ 3.59 to 6.83 µM) and an MIC [3] of 2.1 to 4 µg/mL (≈ 3.59 to 6.83 µM). It also gave an MIC [4] of 2.1 to 4 µg/mL (≈ 3.59 to 6.83 µM) and a pIC50 [5] of 7.00 to 8.00.
For `COc1ccc(F)cc1[C@H](Cn1c(=O)n([C@@H]2CCN(C)C2=O)c(=O)c2c(C)c(-n3cccn3)sc21)O[C@H]1CC[C@@H](O)CC1` [Compound I-181, 1-((R)-2-(5-fluoro-2-methoxyphenyl)-2-(((I s, 4S)-4-hydroxycyclohexyl)oxy)ethyl)-5-methyl-3-((R)-1-methyl-2-oxopyrrolidin-3-yl)-6-(1H-pyrazol-1-yl)thieno[2,3-d]pyrimidine-2,4(1H,3H)-dione], the pIC50 [1] was 8.00 to 8.70, the MIC [2] was 0.25 to 1 µg/mL (≈ 0.409 to 1.63 µM) and the MIC [3] was 1.1 to 2 µg/mL (≈ 1.8 to 3.27 µM). For the same compound, the MIC [4] was 1.1 to 2 µg/mL (≈ 1.8 to 3.27 µM) and the pIC50 [5] was 8.70 to 9.15.
Compound `COc1ccc(F)cc1[C@H](Cn1c(=O)n([C@H]2CCN(C)C2=O)c(=O)c2c(C)c(-n3cccn3)sc21)O[C@H]1CC[C@@H](O)CC1` [Compound I-182] has a pIC50 [1] of 7.00 to 8.00, an MIC [2] of 2.1 to 4 µg/mL (≈ 3.43 to 6.54 µM) and an MIC [3] of 2.1 to 4 µg/mL (≈ 3.43 to 6.54 µM). It also gave an MIC [4] of 2.1 to 4 µg/mL (≈ 3.43 to 6.54 µM) and a pIC50 [5] of 8.70 to 9.15.
With `COc1ccc(F)cc1[C@H](Cn1c(=O)n([C@@H]2CCN(C)C2=O)c(=O)c2c(C)c(-n3nccn3)sc21)O[C@H]1C[C@@H](O)C1` [Compound I-183, 1-((R)-2-(5-fluoro-2-methoxyphenyl)-2-((1s, 3S)-3-hydroxycyclobutoxy)ethyl)-5-methyl-3-((R)-1-methyl-2-oxopyrrolidin-3-yl)-6-(2H-1,2,3-triazol-2-yl)thieno[2,3-d]pyrimidine-2,4(1H,3H)-dione] the pIC50 [1] was 8.00 to 8.70, the MIC [2] was 0.25 to 1 µg/mL (≈ 0.428 to 1.71 µM) and the MIC [3] was 0.25 to 1 µg/mL (≈ 0.428 to 1.71 µM). It also gave an MIC [4] of 1.1 to 2 µg/mL (≈ 1.88 to 3.42 µM) and a pIC50 [5] of 8.70 to 9.15.
Work on `COc1ccc(F)cc1[C@H](Cn1c(=O)n([C@@H]2CCNC2=O)c(=O)c2c(C)c(-n3nccn3)sc21)O[C@H]1C[C@@H](O)C1` [Compound I-184, 1-((R)-2-(5-fluoro-2-methoxyphenyl)-2-((1s, 3S)-3-hydroxycyclobutoxy)ethyl)-5-methyl-3-((R)-2-oxopyrrolidin-3-yl)-6-(2H-1-1,2,3-triazol-2-yl)thieno[2,3-d]pyrimidine-2,4(1H,3H)-dione] yielded a pIC50 [1] of 8.00 to 8.70, an MIC [2] of 2.1 to 4 µg/mL (≈ 3.68 to 7.01 µM) and an MIC [3] of 2.1 to 4 µg/mL (≈ 3.68 to 7.01 µM). The MIC [4] was 2.1 to 4 µg/mL (≈ 3.68 to 7.01 µM) and the pIC50 [5] was 8.70 to 9.15.
In the case of `COc1ccc(F)cc1[C@H](Cn1c(=O)n([C@@H]2CCNC2=O)c(=O)c2c(C)c(-n3nccn3)sc21)O[C@H]1C[C@H](O)C1` [Compound I-186, 1-((R)-2-(5-fluoro-2-methoxyphenyl)-2-((1r,3R)-3-hydroxycyclobutoxy)ethyl)-5-methyl-3-((R)-2-oxopyrrolidin-3-yl)-6-(2H-1,2,3-triazol-2-yl)thieno[2,3-d]pyrimidine-2,4(1H,3H)-dione], the pIC50 [1] was 8.00 to 8.70, the MIC [2] was 2.1 to 4 µg/mL (≈ 3.68 to 7.01 µM) and the MIC [3] was 2.1 to 4 µg/mL (≈ 3.68 to 7.01 µM). It also gave an MIC [4] of 2.1 to 4 µg/mL (≈ 3.68 to 7.01 µM) and a pIC50 [5] of 8.70 to 9.15.
Work on `COc1ccc(F)cc1[C@H](Cn1c(=O)n([C@H]2CCNC2=O)c(=O)c2c(C)c(-n3nccn3)sc21)O[C@H]1CC[C@@H](O)CC1` [Compound I-187, 1-((R)-2-(5-fluoro-2-methoxyphenyl)-2-(((1 s, 4S)-4-hydroxycyclohexyl)oxy)ethyl)-5-methyl-3-((S)-2-oxopyrrolidin-3-yl)-6-(2H-1,2,3-triazol-2-yl)thieno[2,3-d]pyrimidine-2,4(1H,3H)-dione] yielded a pIC50 [1] of 8.00 to 8.70, an MIC [2] of 2.1 to 4 µg/mL (≈ 3.51 to 6.68 µM) and an MIC [3] of 2.1 to 4 µg/mL (≈ 3.51 to 6.68 µM). It also gave an MIC [4] of 2.1 to 4 µg/mL (≈ 3.51 to 6.68 µM) and a pIC50 [5] of 8.70 to 9.15.
In the case of `COc1ccc(F)cc1[C@H](Cn1c(=O)n([C@@H]2CCNC2=O)c(=O)c2c(C)c(-n3nccn3)sc21)O[C@H]1CC[C@@H](O)CC1` [Compound I-188, 1-((R)-2-(5-fluoro-2-methoxyphenyl)-2-(((1 s, 4S)-4-hydroxycyclohexyl)oxy)ethyl)-5-methyl-3-((R)-2-oxopyrrolidin-3-yl)-6-(2H-1,2,3-triazol-2-yl)thieno[2,3-d]pyrimidine-2,4(1H3H)-dione], the pIC50 [1] was 8.00 to 8.70, the MIC [2] was 0.25 to 1 µg/mL (≈ 0.418 to 1.67 µM) and the MIC [3] was 0.25 to 1 µg/mL (≈ 0.418 to 1.67 µM). It also gave an MIC [4] of 1.1 to 2 µg/mL (≈ 1.84 to 3.34 µM) and a pIC50 [5] of 8.70 to 9.15.
For `Cc1c(-n2nccn2)sc2c1c(=O)n([C@@H]1CCN(C)C1=O)c(=O)n2C[C@H](O[C@H]1CC[C@@H](O)CC1)c1cc(F)ccc1O` [Compound I-189, 1-((R)-2-(5-fluoro-2-hydroxyphenyl)-2-(((1s, 4S)-4-hydroxycyclohexyl)oxy)ethyl)-5-methyl-3-((R)-1-methyl-2-oxopyrrolidin-3-yl)-6-(2H-1,2,3-triazol-2-yl)thieno[2,3-d]pyrimidine-2,4(1H, 3H)-dione], the pIC50 [1] was 8.00 to 8.70, the MIC [2] was 2.1 to 4 µg/mL (≈ 3.51 to 6.68 µM) and the MIC [3] was 2.1 to 4 µg/mL (≈ 3.51 to 6.68 µM). It also gave an MIC [4] of 2.1 to 4 µg/mL (≈ 3.51 to 6.68 µM) and a pIC50 [5] of 8.70 to 9.15.
Compound `Cc1c(-n2nccn2)sc2c1c(=O)n([C@H]1CCN(C)C1=O)c(=O)n2C[C@H](O[C@H]1CC[C@@H](O)CC1)c1cc(F)ccc1O` [Compound I-190, 1-((R)-2-(5-fluoro-2-hydroxyphenyl)-2-(((1 s, 4S)-4-hydroxycyclohexyl)oxy)ethyl)-5-methyl-3-((S)-1-methyl-2-oxopyrrolidin-3-yl)-6-(2H-1,2,3-triazol-2-yl)thieno[2,3-d]pyrimidine-2,4(1H,3H)-dione] has a pIC50 [1] of 7.00 to 8.00, an MIC [2] of 2.1 to 4 µg/mL (≈ 3.51 to 6.68 µM) and an MIC [3] of 2.1 to 4 µg/mL (≈ 3.51 to 6.68 µM). The MIC [4] was 2.1 to 4 µg/mL (≈ 3.51 to 6.68 µM) and the pIC50 [5] was 8.70 to 9.15.
